Laboratory results reported in patent US6339100B1, “Methods for inhibiting mastocytosis” (The Trustees of Columbia University in the City of New York, priority 1999, dated 2002).

Legend:
[1] = system: KIT with juxtamembrane insertion mutation (C2 KIT); assay: Constitutive phosphorylation of mutant KIT in C2 dog mastocytoma cells; format: cell-based; details: 5 μM
Description: (§1) FIG. 1: Effects of indolinone derivatives on phosphorylation of wild-type and mutant KITs. […] The compound with the structure VII or structure VI are effective against KIT containing an activating juxtamembrane domain mutation in C2 cells.
(§2) KIT activity was determined by in vitro phosphorylation, as previously described (Ma et al, 1999a). The neoplastic mast cell line C2 and P815 have been previously described (Dunn et al, 1957; Lazarus et al, 1986; DeVinney and Gold, 1990), and their activating c-KIT mutations characterized (Tsujimura et al, 1994; Ma et al, 1999a). To determine cell proliferation and viability, cells from triplicate cultures were stained with trypan blue and counted in a hemocytometer. All experiments were repeated at least three times.
The effects of these compounds on constitutive activation of KIT mutants expressed by neoplastic mast cells were then tested. For activating juxtamembrane mutations, the C2 dog mastocytoma cell line was studied (Lazarus et al, 1986; DeVinney and Gold, 1990), in which KIT is constitutively active due to a juxtamembrane insertion mutation (Ma et al, 1999a). […] The effects of these compounds on constitutive phosphorylation of KIT bearing in the juxtamembrane region either deletion of Trp556-Lys557 or substitution of Pro for Leu575, mutations previously identified in dog mastocytomas (Ma et al, 1999a) were also examined.

[2] = system: fibroblast growth factor receptor; details: cited from earlier work
wild-type KIT = assay: Phosphorylation of wild-type KIT expressed in COS cells (anti-phosphotyrosine blot); format: cell-based; details: 5 μM, 30 min, SCF 100 ng/ml 10 min
Description: as §1, §2

[3] = molecular target: T1, KIT with substitution of Tyr for Asp814 (P815 KIT) (Mus musculus, UniProt P05532, D818Y); assay: Phosphorylation of mutant KIT in P815 cells; format: cell-based, murine; details: 40 μM, 30 min
T1 construct: mutant KITs expressed in C2 and P815 cells; endogenous in cells; host or cells: P815 murine mastocytoma cells
Description: as §1, §2
For activating mutations in the kinase domain, the P815 murine mast cell tumor line (Dunn et al, 1957) was examined. P815 c-KIT contains a point mutation resulting in substitution of Tyr for Asp814, the equivalent position of human Asp816, which causes constitutive receptor activation (Tsujimura et al, 1994).

[4] = system: platelet-derived growth factor receptor; details: cited from earlier work
insulin receptor = insulin receptor (Homo sapiens, UniProt P06213); details: cited from earlier work
P815 cells = assay: P815 cell proliferation and viability (trypan blue counting); format: cell-based, murine; details: treated daily with 10 μM
Description: (§3) FIG. 2: Effects of indolinone derivatives on neoplastic mast cell growth. […] Results (mean±SEM) represent averages of triplicate cultures.
as §2

C2 cells = assay: C2 cell proliferation and viability (trypan blue counting); format: cell-based, dog; details: treated daily with 1 μM
Description: as §3, §2

T1 sequence (P05532 25-975 isoform P05532-2 D814Y): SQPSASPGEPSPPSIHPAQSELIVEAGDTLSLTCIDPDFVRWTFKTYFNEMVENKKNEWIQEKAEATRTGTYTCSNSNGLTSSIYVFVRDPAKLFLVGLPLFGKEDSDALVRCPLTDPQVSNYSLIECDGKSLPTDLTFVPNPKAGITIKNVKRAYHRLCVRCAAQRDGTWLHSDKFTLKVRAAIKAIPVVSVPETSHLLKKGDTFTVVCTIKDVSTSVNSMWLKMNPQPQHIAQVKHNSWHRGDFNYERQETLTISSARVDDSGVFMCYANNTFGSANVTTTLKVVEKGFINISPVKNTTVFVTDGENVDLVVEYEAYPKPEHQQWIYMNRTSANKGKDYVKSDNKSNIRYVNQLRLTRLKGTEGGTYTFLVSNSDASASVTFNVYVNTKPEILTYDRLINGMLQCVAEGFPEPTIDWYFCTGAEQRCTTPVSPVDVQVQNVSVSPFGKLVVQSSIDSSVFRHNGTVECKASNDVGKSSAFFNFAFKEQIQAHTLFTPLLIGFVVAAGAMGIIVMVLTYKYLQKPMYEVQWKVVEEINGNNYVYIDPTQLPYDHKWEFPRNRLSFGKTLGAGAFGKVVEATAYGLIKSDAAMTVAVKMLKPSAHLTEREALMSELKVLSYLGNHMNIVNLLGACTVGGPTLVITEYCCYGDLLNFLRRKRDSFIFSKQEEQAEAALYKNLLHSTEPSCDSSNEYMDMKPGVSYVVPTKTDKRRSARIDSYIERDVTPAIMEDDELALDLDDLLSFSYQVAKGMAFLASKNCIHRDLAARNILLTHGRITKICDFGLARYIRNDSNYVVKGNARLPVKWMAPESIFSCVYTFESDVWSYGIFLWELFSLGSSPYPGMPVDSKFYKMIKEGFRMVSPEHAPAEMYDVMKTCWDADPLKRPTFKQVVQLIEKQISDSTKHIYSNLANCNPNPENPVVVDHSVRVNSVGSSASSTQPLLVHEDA
insulin receptor, sequence (P06213 28-1382, species assumed): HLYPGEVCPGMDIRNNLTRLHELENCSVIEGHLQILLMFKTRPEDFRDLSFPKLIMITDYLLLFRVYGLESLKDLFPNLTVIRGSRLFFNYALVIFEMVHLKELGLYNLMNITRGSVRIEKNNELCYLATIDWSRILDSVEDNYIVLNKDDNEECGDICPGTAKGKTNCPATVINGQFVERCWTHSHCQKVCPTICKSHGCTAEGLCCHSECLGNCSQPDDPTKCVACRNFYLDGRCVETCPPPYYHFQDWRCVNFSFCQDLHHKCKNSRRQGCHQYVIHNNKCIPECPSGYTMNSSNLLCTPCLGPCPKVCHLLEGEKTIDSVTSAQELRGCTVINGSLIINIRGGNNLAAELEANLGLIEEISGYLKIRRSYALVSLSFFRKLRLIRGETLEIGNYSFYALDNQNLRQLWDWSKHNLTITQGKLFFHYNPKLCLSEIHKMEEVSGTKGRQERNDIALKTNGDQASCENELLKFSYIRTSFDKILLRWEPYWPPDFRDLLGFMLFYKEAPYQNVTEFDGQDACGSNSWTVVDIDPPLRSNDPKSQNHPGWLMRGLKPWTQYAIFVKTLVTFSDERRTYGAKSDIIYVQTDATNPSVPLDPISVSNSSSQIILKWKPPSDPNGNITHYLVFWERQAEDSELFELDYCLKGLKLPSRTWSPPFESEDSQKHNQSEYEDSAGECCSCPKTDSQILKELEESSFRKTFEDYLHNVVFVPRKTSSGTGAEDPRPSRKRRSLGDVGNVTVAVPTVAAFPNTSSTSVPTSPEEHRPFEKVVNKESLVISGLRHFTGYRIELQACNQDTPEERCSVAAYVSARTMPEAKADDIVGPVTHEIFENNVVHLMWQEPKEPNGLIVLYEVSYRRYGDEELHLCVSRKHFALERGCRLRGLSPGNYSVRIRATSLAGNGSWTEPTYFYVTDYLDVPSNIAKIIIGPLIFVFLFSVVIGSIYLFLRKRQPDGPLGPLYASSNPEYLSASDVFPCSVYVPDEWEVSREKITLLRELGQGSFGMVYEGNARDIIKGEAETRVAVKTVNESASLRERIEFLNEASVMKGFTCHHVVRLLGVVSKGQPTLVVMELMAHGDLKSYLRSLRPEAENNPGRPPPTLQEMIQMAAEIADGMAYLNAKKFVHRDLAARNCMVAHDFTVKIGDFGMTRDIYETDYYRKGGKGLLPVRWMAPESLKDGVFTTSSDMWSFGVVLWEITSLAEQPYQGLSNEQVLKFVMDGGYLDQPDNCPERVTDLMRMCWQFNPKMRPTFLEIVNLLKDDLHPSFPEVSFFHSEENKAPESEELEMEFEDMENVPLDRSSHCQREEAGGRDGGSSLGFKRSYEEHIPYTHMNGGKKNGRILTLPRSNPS

O=CN1CCN(c2ccc(/C=C3/C(=O)Nc4ccccc43)cc2)CC1 [structure VII]
reduction of the constitutive C2 KIT phosphorylation [1]: approximately 50%
inhibition of fibroblast growth factor receptor [2]: effective
effect on tyrosine phosphorylation of the wild-type receptor (wild-type KIT): substantially reduce
inhibition of phosphorylation of the P815 KIT mutant [3]: not effectively inhibiting
inhibition of platelet-derived growth factor receptor [4]: effective
inhibition of insulin receptor (insulin receptor): effective
effect on P815 cell proliferation (P815 cells): killed
effect on C2 cell proliferation (C2 cells): killed
